No end group written: not given here.
Assays:
[1] = tested on: Miltenberger Antibody Positive Panel; assay: Reactivity of modified RBCs against the Miltenberger Antibody Positive Panel; type: cell-based, human; parameters: key to score vs panel 15 TAP2 / score vs panel 4 T7202 / score vs panel 8 T5896 / score vs panel 2 T217 / score vs panel 3 T165 / score vs panel 14 TAP1 / score vs panel 10 Mia / score vs panel 11 Mur / score vs panel 12 Gam / score vs panel 6 T6025 / score vs panel 7 T8445 / score vs panel 9 MIII / score vs panel 13 BoxH / reactivity with Panel Serum #7 (T8445) / agglutination score, Panel Serum #7 (T8445): 0 or ‘−’ no agglutination; 0 or ‘−’ no agglutination; 1+ or 3=very weak agglutination; 1+ or 3=very weak agglutination; 2+ or 5=weak agglutination; 2+ or 5=weak agglutination; 3+ or 8=moderate strong agglutination; 3+ or 8=moderate strong agglutination; 4+ or 10/12=strong agglutination; 4+ or 10/12=strong agglutination; 4+ or 10/12=strong agglutination; conditions: for agglutination score, Panel Serum #7 (T8445): cells modified at 50 μg/ml, 2 hour 37° C., BioVue AHG cards; for reactivity with Panel Serum #7 (T8445): construct 50 μg/ml (2 hours, 37° C.)
Experimental: Red blood cells are modified by mixing 1 part by volume of washed packed red blood cells with 1 part by volume of peptide-lipid construct dispersed at a concentration of 10 to 1000 pg/ml in cell media (Celpresol™).
The suspensions are either: • 1. incubated for 2 hours at 37° C. before being washed and suspended in a cell medium for serological analysis at a concentration of 0.8 to 3% (Method 1); or • 2. incubated for 3 to 4 hours at room temperature (circa 25° C.) followed by 18 hours at 4° C. before being washed and suspended in a cell medium for serological analysis at a concentration of 0.8 to 3% (Method 2).
Serological reactions are graded or scored by either of two established systems (0 or ‘−’ no agglutination, 1+ or 3=very weak agglutination, 2+ or 5=weak agglutination, 3+ or 8=moderate strong agglutination, 4+ or 10/12=strong agglutination)
Serological platforms used are Tube (addition of reagents and reactants into plastic or glass serology tubes and after appropriate incubations, washing and centrifugation observing reactions macroscopically by eye and a 10× magnification eyepiece and scoring) and BioVue™ (addition of reactants into cassettes containing beads (including some reactants) and after appropriate incubations and centrifugation observing the reaction patterns trapped within the Gel matrix). BioVue is the serological column agglutination platform of Ortho-Clinical Diagnostics. Diamed is the serological column agglutination platform of Diamed AG.

antibody negative serums = assay: False positive reactions of modified RBCs with antibody negative serums/plasma; type: cell-based, human; parameters: key to Reaction score BioVue AHG, PAC samples 1-46, 49, 50, 52, 53 / Reaction score BioVue AHG, PAC sample 47 / Reaction score BioVue AHG, PAC sample 48 / Reaction score BioVue AHG, PAC sample 51 / agglutination score, T series serum 2 / agglutination score, T series serum 42 / agglutination score, T series serum 63 / agglutination score, T series serum 62 / agglutination score, T series serum 7 / agglutination score, T series serum 20 / agglutination score, T series serum 48 / agglutination score, T series serum 22 / agglutination score, T series serum 39 / agglutination score, T series serum 23 / agglutination score, T series serum 30 / agglutination score, T series serum 4 / agglutination score, T series serum 31 / agglutination score, T series serum 44 / agglutination score, T series serum 61 / agglutination score, T series serum 18 / agglutination score, T series serum 21 / agglutination score, T series serum 28 / agglutination score, T series serum 55 / agglutination score, false positive serum T18 / agglutination score, false positive serum T21 / agglutination score, false positive serum T28 / agglutination score, false positive serum T55 / agglutination score, false positive serum T78 / agglutination score, false positive serum T92: 0 or ‘−’ no agglutination; 0 or ‘−’ no agglutination; 1+ or 3=very weak agglutination; 1+ or 3=very weak agglutination; 2+ or 5=weak agglutination; 2+ or 5=weak agglutination; 3+ or 8=moderate strong agglutination; 3+ or 8=moderate strong agglutination; 4+ or 10/12=strong agglutination; 4+ or 10/12=strong agglutination; 4+ or 10/12=strong agglutination; conditions: larger series = 102; cells modified at 50 μg/ml, 2 hour 37° C.; BioVue AHG cards

| Substance | score vs panel 2 T217 ([1]; Table 9, construct 50 μg/ml) | score vs panel 4 T7202 ([1]; Table 9, construct 50 μg/ml) | score vs panel 7 T8445 ([1]; Table 9, construct 50 μg/ml) | score vs panel 8 T5896 ([1]; Table 9, construct 50 μg/ml) | score vs panel 15 TAP2 ([1]; Table 9, construct 50 μg/ml) | score vs panel 2 T217 ([1]; Table 9, construct 100 μg/ml) | score vs panel 3 T165 ([1]; Table 9, construct 100 μg/ml) | score vs panel 4 T7202 ([1]; Table 9, construct 100 μg/ml) | score vs panel 6 T6025 ([1]; Table 9, construct 100 μg/ml) | score vs panel 7 T8445 ([1]; Table 9, construct 100 μg/ml) | score vs panel 8 T5896 ([1]; Table 9, construct 100 μg/ml) | score vs panel 9 MIII ([1]; Table 9, construct 100 μg/ml) | score vs panel 10 Mia ([1]; Table 9, construct 100 μg/ml) | score vs panel 11 Mur ([1]; Table 9, construct 100 μg/ml) | score vs panel 12 Gam ([1]; Table 9, construct 100 μg/ml) | agglutination score, Panel Serum #7 (T8445) [1] | reactivity with Panel Serum #7 (T8445) [1] | agglutination score, false positive serum T28 (antibody negative serums) | agglutination score, false positive serum T92 (antibody negative serums) | score vs panel 3 T165 ([1]; Table 9, construct 50 μg/ml) | further results |
| --- | --- | --- | --- | --- | --- | --- | --- | --- | --- | --- | --- | --- | --- | --- | --- | --- | --- | --- | --- | --- | --- |
| M27: DOPE peptide-lipid construct: Mur peptide TYPAHTAN, leader c, spacer CMG(2) (TYPAHTANC; also: DOPE peptide-lipid construct via leader Cys, spacer CMG(2)) | 0 | 10 | 0 | 0 | 0 |  |  |  |  |  |  |  |  |  |  |  |  |  |  |  |  |
| M16: DOPE peptide-lipid construct: Mur peptide TYPAHTANEV, leader c, spacer PEG (TYPAHTANEVC; also: DOPE peptide-lipid construct via leader Cys, spacer PEG) |  |  |  |  |  | 0 | 10 | 5 | 5 | 12 | 0 | 0 | 0 | 0 | 0 |  |  |  |  |  | score vs panel 13 BoxH ([1]; Table 9, construct 100 μg/ml): 0 |
| M29: DOPE peptide-lipid construct: Mur peptide PAHTANEVS, leader c, spacer CMG(2) (PAHTANEVSC; also: DOPE peptide-lipid construct via leader Cys, spacer CMG(2)) | 0 | 10 |  | 0 | 8 |  |  |  |  |  |  |  |  |  |  | 8 | 8 | 5 | 8 |  |  |
| M26: DOPE peptide-lipid construct: Mur peptide YPAHTANEV, leader c, spacer CMG(2) (YPAHTANEVC; also: DOPE peptide-lipid construct via leader Cys, spacer CMG(2)) | 0 | 0 | 8 | 0 | 3 |  |  |  |  |  |  |  |  |  |  | 10 | 10 | 12 | 12 | 10 | score vs panel 6 T6025 ([1]; Table 9, construct 50 μg/ml): 8; score vs panel 9 MIII ([1]; Table 9, construct 50 μg/ml): 0; score vs panel 10 Mia ([1]; Table 9, construct 50 μg/ml): 0; score vs panel 11 Mur ([1]; Table 9, construct 50 μg/ml): 0; score vs panel 12 Gam ([1]; Table 9, construct 50 μg/ml): 0; agglutination score, false positive serum T18 (antibody negative serums): 5; agglutination score, false positive serum T21 (antibody negative serums): 10; agglutination score, false positive serum T55 (antibody negative serums): 10; agglutination score, false positive serum T78 (antibody negative serums): 10 |
| M14: DOPE peptide-lipid construct: Mur peptide DTYPAHTANEVSE, leader c, spacer CMG(2) (DTYPAHTANEVSEC; also: DOPE peptide-lipid construct via leader Cys, spacer CMG(2)) | 0 | 3 | 8 | 0 |  | 3 | 10 | 5 | 10 | 5 | 0 | 0 | 0 | 0 |  |  |  |  |  | 10 | score vs panel 2 T217 ([1]; Table 9, construct 10 μg/ml): 0; score vs panel 3 T165 ([1]; Table 9, construct 10 μg/ml): 10; score vs panel 4 T7202 ([1]; Table 9, construct 10 μg/ml): 0; score vs panel 6 T6025 ([1]; Table 9, construct 10 μg/ml): 8; score vs panel 7 T8445 ([1]; Table 9, construct 10 μg/ml): 5; score vs panel 8 T5896 ([1]; Table 9, construct 10 μg/ml): 0; score vs panel 9 MIII ([1]; Table 9, construct 10 μg/ml): 0; score vs panel 10 Mia ([1]; Table 9, construct 10 μg/ml): 0; score vs panel 11 Mur ([1]; Table 9, construct 10 μg/ml): 0; score vs panel 13 BoxH ([1]; Table 9, construct 10 μg/ml): 0; score vs panel 6 T6025 ([1]; Table 9, construct 50 μg/ml): 5; score vs panel 9 MIII ([1]; Table 9, construct 50 μg/ml): 0; score vs panel 10 Mia ([1]; Table 9, construct 50 μg/ml): 0; score vs panel 11 Mur ([1]; Table 9, construct 50 μg/ml): 0; score vs panel 13 BoxH ([1]; Table 9, construct 100 μg/ml): 0 |
| M21: DOPE peptide-lipid construct: MUTK peptide SQTNDKHKRD, leader c, spacer CMG(2) (SQTNDKHKRDC; also: DOPE peptide-lipid construct via leader Cys, spacer CMG(2)) |  |  |  |  |  |  |  |  |  |  |  |  |  |  |  |  |  |  |  |  | score vs panel 2 T217 ([1]; Table 8, construct 200 μg/ml): 0; score vs panel 3 T165 ([1]; Table 8, construct 200 μg/ml): 8; score vs panel 4 T7202 ([1]; Table 8, construct 200 μg/ml): 0; score vs panel 6 T6025 ([1]; Table 8, construct 200 μg/ml): 8; score vs panel 7 T8445 ([1]; Table 8, construct 200 μg/ml): 0; score vs panel 8 T5896 ([1]; Table 8, construct 200 μg/ml): 0; score vs panel 9 MIII ([1]; Table 8, construct 200 μg/ml): 0; score vs panel 10 Mia ([1]; Table 8, construct 200 μg/ml): 0; score vs panel 11 Mur ([1]; Table 8, construct 200 μg/ml): 0; score vs panel 12 Gam ([1]; Table 8, construct 200 μg/ml): 3; score vs panel 15 TAP2 ([1]; Table 8, construct 200 μg/ml): 5 |
| M25: DOPE peptide-lipid construct: Mur peptide Tyr Pro Ala His Thr Ala Asn Gln, leader c, spacer CMG(2) | 0 | 0 | 3 | 0 | 8 |  |  |  |  |  |  |  |  |  |  | 3 | 3 |  |  | 3 | score vs panel 6 T6025 ([1]; Table 9, construct 50 μg/ml): 0; score vs panel 9 MIII ([1]; Table 9, construct 50 μg/ml): 0; score vs panel 10 Mia ([1]; Table 9, construct 50 μg/ml): 0; score vs panel 11 Mur ([1]; Table 9, construct 50 μg/ml): 0; score vs panel 12 Gam ([1]; Table 9, construct 50 μg/ml): 0; agglutination score, false positive serum T78 (antibody negative serums): 5 |
| M19: DOPE peptide-lipid construct: Mur peptide PAHTANEV, leader c, spacer CMG(2) (PAHTANEVC; also: DOPE peptide-lipid construct via leader Cys, spacer CMG(2)) |  |  |  |  |  | 0 | 10 | 0 | 8 | 10 | 3 | 0 | 0 | 0 | 0 | 8 | 8 |  |  |  | agglutination score, false positive serum T55 (antibody negative serums): 12 |
| M31: DOPE peptide-lipid construct: Mur peptide YPAHTANEVS, leader c, spacer CMG(2) (YPAHTANEVSC; also: DOPE peptide-lipid construct via leader Cys, spacer CMG(2)) | 0 | 10 | 8 | 0 | 0 |  |  |  |  |  |  |  |  |  |  | 8 | 8 | 12 | 12 |  | agglutination score, false positive serum T21 (antibody negative serums): 10; agglutination score, false positive serum T78 (antibody negative serums): 8 |
| M18: DOPE peptide-lipid construct: Mur peptide PAHTANEV, leader c, spacer CMG(2) (PAHTANEVC; also: DOPE peptide-lipid construct via leader Cys, spacer CMG(2)) |  |  |  |  |  | 0 | 10 | 0 | 10 | 8 | 0 | 0 | 0 | 0 | 0 |  |  |  |  |  |  |

Source: patent US10919941B2, “Functional lipid constructs” (KODE BIOTECH LIMITED, priority 2007, dated 2021)
